US7799821B2, “Therapeutic compounds” (Allergan, Inc., priority 2004, dated 2010)

Experiments:
Type in all cases: cell-based
hEP2/Gqs5 = target: T1, hEP2/Gqs5 (Homo sapiens, UniProt P43116); assay: FLIPR calcium signal, hEP2; details: FLIPR Ca2+ signal, HEK-293(EBNA); read-out: FUNCTIONAL EC50 HEP2
T1 construct: expressed in transfected cells; host or cells: HEK-293(EBNA)
Method in brief: (§1)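 HEK-293(EBNA) cells stably expressing the recombinant human receptor were loaded with 2 μM Fluo-4 AM for 45 min and read on FLIPR at 37° C in HBSS-HEPES pH 7.4. Peak fluorescence rise was expressed relative to buffer and standard agonist controls (BW245C, PGE2 or U-46619 by receptor); compounds were run 10^−5 to 10^−11 M in duplicate, n≧3.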

hEP3A/Gqi5 = target: T2, hEP3A/Gqi5 (Homo sapiens, UniProt P43115); assay: FLIPR calcium signal, hEP3A; details: FLIPR Ca2+ signal, HEK-293(EBNA); read-out: FUNCTIONAL EC50 HEP3A
T2 construct: expressed in transfected cells; host or cells: HEK-293(EBNA)
T2 sequence (P43115 1-390): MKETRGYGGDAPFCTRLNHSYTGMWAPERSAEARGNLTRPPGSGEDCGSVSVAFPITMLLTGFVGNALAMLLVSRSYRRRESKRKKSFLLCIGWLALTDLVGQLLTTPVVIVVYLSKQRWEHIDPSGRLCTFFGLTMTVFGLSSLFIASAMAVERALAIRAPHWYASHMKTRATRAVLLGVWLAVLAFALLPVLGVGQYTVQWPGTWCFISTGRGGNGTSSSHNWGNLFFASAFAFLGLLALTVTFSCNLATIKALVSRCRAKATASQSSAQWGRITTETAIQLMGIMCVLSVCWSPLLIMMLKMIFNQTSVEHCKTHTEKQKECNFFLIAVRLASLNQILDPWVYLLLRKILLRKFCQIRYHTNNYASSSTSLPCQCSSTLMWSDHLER
Experimental: (§2) HEK-293(EBNA) cells, stably expressing one type or subtype of recombinant human prostaglandin receptors (prostaglandin receptors expressed: hDP/Gqs5; hEP1; hEP2/Gqs5; hEP3A/Gqi5; hEP4/Gqs5; hFP; hIP; hTP), were cultured in 100 mm culture dishes in high-glucose DMEM medium containing 10% fetal bovine serum, 2 mM 1-glutamine, 250 μg/ml geneticin (G418) and 200 μg/ml hygromycin B as selection markers, and 100 units/ml penicillin G, 100 μg/ml streptomycin and 0.25 μg/ml amphotericin B. • (b) Calcium Signal Studies on the FLIPR™
(§3) Cells were seeded at a density of 5×10^4 cells per well in Biocoat® Poly-D-lysine-coated black-wall, clear-bottom 96-well plates (Becton-Dickinson) and allowed to attach overnight in an incubator at 37° C. Cells were then washed two times with HBSS-HEPES buffer (Hanks Balanced Salt Solution without bicarbonate and phenol red, 20 mM HEPES, pH 7.4) using a Denley Cellwash plate washer (Labsystems). After 45 minutes of dye-loading in the dark, using the calcium-sensitive dye Fluo-4 AM at a final concentration of 2 μM, plates were washed four times with HBSS-HEPES buffer to remove excess dye leaving 100 μl in each well. Plates were re-equilibrated to 37° C. for a few minutes.
(§4) Cells were excited with an Argon laser at 488 nm, and emission was measured through a 510-570 nm bandwidth emission filter (FLIPR™, Molecular Devices, Sunnyvale, Calif.). Drug solution was added in a 50 μl volume to each well to give the desired final concentration. The peak increase in fluorescence intensity was recorded for each well. On each plate, four wells each served as negative (HBSS-HEPES buffer) and positive controls (standard agonists: BW245C (hDP); PGE2 (hEP1; hEP2/Gqs5; hEP3A/Gqi5; hEP4/Gqs5); PGF2α (hFP); carbacyclin (hIP); U-46619 (hTP), depending on receptor). The peak fluorescence change in each drug-containing well was then expressed relative to the controls.
(§5) Compounds were tested in a high-throughput (HTS) or concentration-response (CoRe) format. In the HTS format, forty-four compounds per plate were examined in duplicates at a concentration of 10^−5 M. To generate concentration-response curves, four compounds per plate were tested in duplicates in a concentration range between 10^−5 and 10^−11 M. The duplicate values were averaged. In either, HTS or CoRe format each compound was tested on at least 3 separate plates using cells from different passages to give an n≧3.

hEP4/Gqs5 = target: T3, hEP4/Gqs5 (Homo sapiens, UniProt P35408); assay: FLIPR calcium signal, hEP4; details: FLIPR Ca2+ signal, HEK-293(EBNA); read-out: FUNCTIONAL EC50 HEP4
T3 construct: expressed in transfected cells; host or cells: HEK-293(EBNA)
T3 sequence (P35408 whole entry): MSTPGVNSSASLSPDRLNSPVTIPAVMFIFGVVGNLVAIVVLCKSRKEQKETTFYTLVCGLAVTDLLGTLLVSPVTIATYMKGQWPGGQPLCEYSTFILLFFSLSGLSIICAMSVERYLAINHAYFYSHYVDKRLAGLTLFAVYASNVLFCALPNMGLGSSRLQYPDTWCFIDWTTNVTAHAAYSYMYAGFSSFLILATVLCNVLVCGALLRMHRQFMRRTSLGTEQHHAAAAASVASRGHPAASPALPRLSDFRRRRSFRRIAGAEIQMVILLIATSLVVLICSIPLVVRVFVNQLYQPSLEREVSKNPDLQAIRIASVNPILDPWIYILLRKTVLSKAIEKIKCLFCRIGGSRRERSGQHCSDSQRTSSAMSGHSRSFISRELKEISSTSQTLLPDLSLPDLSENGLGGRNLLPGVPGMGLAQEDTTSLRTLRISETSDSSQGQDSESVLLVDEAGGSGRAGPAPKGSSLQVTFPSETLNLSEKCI
Method in brief: as §1

hIP = target: T4, hIP (Homo sapiens, UniProt P43119); assay: FLIPR calcium signal, hIP; details: FLIPR Ca2+ signal, HEK-293(EBNA); read-out: FUNCTIONAL EC50 HIP
T4 construct: expressed in transfected cells; host or cells: HEK-293(EBNA)
T4 sequence (P43119 whole entry): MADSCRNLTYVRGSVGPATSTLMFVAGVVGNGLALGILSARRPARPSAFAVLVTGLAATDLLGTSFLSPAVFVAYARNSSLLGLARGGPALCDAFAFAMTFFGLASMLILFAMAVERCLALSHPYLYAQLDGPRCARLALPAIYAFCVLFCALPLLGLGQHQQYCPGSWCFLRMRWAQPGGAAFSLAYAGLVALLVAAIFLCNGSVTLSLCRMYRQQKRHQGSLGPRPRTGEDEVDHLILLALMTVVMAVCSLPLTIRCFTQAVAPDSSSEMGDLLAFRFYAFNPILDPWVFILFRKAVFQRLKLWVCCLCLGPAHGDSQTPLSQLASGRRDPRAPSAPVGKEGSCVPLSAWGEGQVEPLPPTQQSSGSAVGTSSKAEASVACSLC
Experimental: as §2, §3, §4, §5

hDP/Gqs5 = target: T5, hDP/Gqs5 (Homo sapiens, UniProt Q13258); assay: FLIPR calcium signal, hDP; details: FLIPR Ca2+ signal, HEK-293(EBNA); read-out: FUNCTIONAL EC50 HDP
T5 construct: expressed in transfected cells; host or cells: HEK-293(EBNA)
T5 sequence (Q13258 1-359): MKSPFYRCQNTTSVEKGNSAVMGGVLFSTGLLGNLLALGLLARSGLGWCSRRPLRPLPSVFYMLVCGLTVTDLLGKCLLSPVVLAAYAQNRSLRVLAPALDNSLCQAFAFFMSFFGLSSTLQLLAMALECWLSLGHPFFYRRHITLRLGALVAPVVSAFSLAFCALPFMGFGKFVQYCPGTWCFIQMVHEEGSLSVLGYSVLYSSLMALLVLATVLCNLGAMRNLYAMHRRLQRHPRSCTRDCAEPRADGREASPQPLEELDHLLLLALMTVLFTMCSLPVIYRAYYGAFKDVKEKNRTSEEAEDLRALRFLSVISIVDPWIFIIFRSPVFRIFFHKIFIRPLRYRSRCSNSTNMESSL
Experimental: as §2, §3, §4, §5

hTP = target: T6, hTP (Homo sapiens, UniProt P21731); assay: FLIPR calcium signal, hTP; details: FLIPR Ca2+ signal, HEK-293(EBNA); read-out: FUNCTIONAL EC50 HTP
T6 construct: expressed in transfected cells; host or cells: HEK-293(EBNA)
T6 sequence (P21731 1-343): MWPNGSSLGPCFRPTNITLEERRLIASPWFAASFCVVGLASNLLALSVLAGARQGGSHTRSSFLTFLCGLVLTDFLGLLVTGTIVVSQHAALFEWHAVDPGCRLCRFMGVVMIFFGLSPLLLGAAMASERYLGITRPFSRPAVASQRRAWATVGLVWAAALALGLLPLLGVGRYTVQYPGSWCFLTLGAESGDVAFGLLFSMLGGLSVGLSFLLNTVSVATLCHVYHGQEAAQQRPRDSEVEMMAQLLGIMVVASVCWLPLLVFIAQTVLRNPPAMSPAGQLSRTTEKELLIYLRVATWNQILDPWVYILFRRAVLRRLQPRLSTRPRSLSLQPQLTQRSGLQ
Experimental: as §2, §3, §4, §5

hEP1 = target: T7, hEP1 (Homo sapiens, UniProt P34995); assay: FLIPR calcium signal, hEP1; details: FLIPR Ca2+ signal, HEK-293(EBNA); read-out: FUNCTIONAL EC50 HEP1
T7 construct: expressed in transfected cells; host or cells: HEK-293(EBNA)
T7 sequence (P34995 1-402): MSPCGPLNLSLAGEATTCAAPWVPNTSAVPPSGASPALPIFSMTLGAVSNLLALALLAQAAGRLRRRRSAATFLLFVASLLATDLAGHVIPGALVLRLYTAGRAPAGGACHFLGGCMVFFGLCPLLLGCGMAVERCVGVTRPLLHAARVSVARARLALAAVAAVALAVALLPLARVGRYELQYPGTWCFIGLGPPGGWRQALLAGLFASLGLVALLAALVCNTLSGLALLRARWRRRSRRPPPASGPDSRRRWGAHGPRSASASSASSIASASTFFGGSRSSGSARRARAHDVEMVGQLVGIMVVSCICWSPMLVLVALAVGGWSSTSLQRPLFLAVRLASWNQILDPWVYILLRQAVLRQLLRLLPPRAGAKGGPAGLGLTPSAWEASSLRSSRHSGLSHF
Experimental: as §2, §3, §4, §5

T1 sequence (P43116 whole entry): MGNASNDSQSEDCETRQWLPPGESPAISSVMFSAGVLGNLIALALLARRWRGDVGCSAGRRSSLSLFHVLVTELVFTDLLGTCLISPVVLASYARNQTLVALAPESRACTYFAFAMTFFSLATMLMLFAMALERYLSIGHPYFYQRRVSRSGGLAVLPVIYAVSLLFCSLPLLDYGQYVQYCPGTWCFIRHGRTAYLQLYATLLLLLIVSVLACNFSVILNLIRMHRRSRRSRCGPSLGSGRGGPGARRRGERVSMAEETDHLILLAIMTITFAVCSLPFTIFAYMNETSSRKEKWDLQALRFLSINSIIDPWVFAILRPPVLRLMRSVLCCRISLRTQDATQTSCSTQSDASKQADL

## CCCC1(C(O)c2cccc([C@H]3[C@H](O)CC(=O)[C@@H]3CCCCCCC(=O)OC)c2)CCC1 (stereo partly drawn)
hEP2/Gqs5
  EC50: > 10 µM
hEP3A/Gqi5
  EC50: > 10 µM
hEP4/Gqs5
  EC50: > 10 µM
hIP
  EC50: > 10 µM
hDP/Gqs5
  EC50: > 10 µM

## CCCC1(C(O)c2cccc([C@@H]3[C@@H](C/C=C\CCCC(=O)OC)[C@H](Cl)C[C@H]3O)c2)CCC1 (stereo partly drawn)
hEP2/Gqs5
  EC50: > 10 µM
hEP3A/Gqi5
  EC50: > 10 µM
hTP
  EC50: > 10 µM

## CCCC1(C(O)c2cccc([C@@H]3[C@@H](C/C=C\CCCC(=O)O)[C@H](Cl)C[C@H]3O)c2)CCC1 (stereo partly drawn)
hEP2/Gqs5
  EC50: 0.322 µM
hEP3A/Gqi5
  EC50: 0.455 µM
hTP
  EC50: > 10 µM
hDP/Gqs5
  EC50: > 10 µM

## CC(C)(C)c1ccc([C@H]2[C@H](O)CC(=O)[C@@H]2C/C=C\CCCC(=O)O)cc1
hEP1
  EC50: > 10 µM
hEP2/Gqs5
  EC50: 1.71 µM

## COC(=O)CCCCCC[C@H]1C(=O)C[C@@H](O)[C@@H]1c1ccc(C(C)(C)C)cc1
hEP2/Gqs5
  EC50: 0.936 µM
hEP3A/Gqi5
  EC50: > 10 µM
hEP4/Gqs5
  EC50: > 10 µM
hTP
  EC50: > 10 µM

## CC(C)(C)c1ccc([C@H]2[C@H](O)CC(=O)[C@@H]2CCCCCCC(=O)O)cc1
hEP1
  EC50: > 10 µM
hEP2/Gqs5
  EC50: 0.102 µM
hEP3A/Gqi5
  EC50: 3.39 µM
hTP
  EC50: 4.27 µM
hIP
  EC50: > 10 µM

## CC(C)(C)c1ccc([C@@H]2[C@@H](C/C=C\CCCC(=O)O)[C@H](Cl)C[C@H]2O)cc1
hEP1
  EC50: > 10 µM
hEP2/Gqs5
  EC50: 0.118 µM
hEP3A/Gqi5
  EC50: 2.05 µM
hEP4/Gqs5
  EC50: > 10 µM
hTP
  EC50: 1.27 µM
hDP/Gqs5
  EC50: > 10 µM

## COC(=O)CCCCCC[C@H]1C(=O)C[C@@H](O)[C@@H]1c1ccc2c(c1)CCC2
hEP2/Gqs5
  EC50: > 10 µM
hEP3A/Gqi5
  EC50: > 10 µM
hEP4/Gqs5
  EC50: > 10 µM
hTP
  EC50: > 10 µM
